Assays:
[1] = Non-human primate pharmacokinetic study (eye drops); assay type: in vivo, Cynomolgus monkeys
Experimental: Non-human primate pharmacokinetic study Cynomolgus monkeys were treated bidaily for 20 days with 35 μL eye drops of compound 1 at 0.5 mg/mL, 1.0 mg/mL or 1.5 mg/ml as indicated, in the eye drop formulation containing 7% poly-oxyl-40-stearate and 4% dextrose in PBS. Blood and aqueous samples were collected 1 h, 4 h, 8 h, 10 h and 14 h after eye drop administration on day 1 and at the end of the study. 1 h after the final eye drop on day 21, the animals were euthanised and ocular tissues and blood were collected. The retina was dissected from the choroid and sclera, incisions made, and laid out flat. Retina, RPE/choroid and sclera eye compartments were dissected into 7 different areas. All samples were weighed. Compound was extracted by reverse phase extraction from the retina and choroid/sclera samples and the plasma as above, and amount determined by mass spectrometry in different areas of the eye and in the blood. Amounts per milligram of tissue or nM for aqueous and blood were calculated for each sample, and averaged.
To determine whether compound 1 could penetrate into the retina of primates we dosed cynomologous monkeys with 0.5, 1.0 or 1.5 mg/mL compound 1 twice a day for 21 days. […] Aqueous taps and plasma samples were taken during the treatment and compound 1 measured in the fluid. […] To determine if these doses were sufficient to inhibit angiogenic VEGF-A isoform expression, retinal tissue was subjected to immunoblotting using pan-VEGF or VEGF-A165b antibodies.

[2] = tested on: VEGF-A165a isoform; experiment: VEGF isoform specific ELISA in retinal pigmented epithelial cells; assay type: cell-based, human; conditions: FIG. 5
Experimental: 96-well clear microplate (high sensitivity thermo immulon or costar 9018) were coated with 100 μL of 10 μg/mL VEGFxxxb or 0.25 μg/mL anti-hVEGF165a per well. The plate was sealed with parafilm and incubated overnight on the shaker at room temp. Each well was aspirated and washed with Wash Buffer (200 μL PBS-Tween 0.05%), […] for a total of three washes. After the last wash, remaining Wash Buffer was removed by inverting the plate and blotting it against clean paper towels. Plates were blocked by adding 100 μL of Reagent Diluent (1% BSA/PBS) to each well and incubated at room temp on a shaker for 2 hours. The aspiration/wash step was repeated. 100 μL of standards or samples in 1% BSA/PBS were added to each well, covered with parafilm and incubated 2 hours at room temperature. The aspiration/wash was repeated and 100 μL of 100 ng/mL of Detection Antibody (BAF293), diluted in Reagent Diluent, was added to each well which were covered with parafilm and incubated 2 hours at room temperature. The aspiration/wash was repeated and 100 μL of the working dilution of Streptavidin-HRP (1:200 dilution) was added to each well. […] The optical density of each well was measured immediately, using a microplate reader set to 450 nm.
To determine whether compound 1 could switch splicing of VEGF isoforms, VEGF was measured in retinal pigmented epithelial cells by isoform specific ELISA.

half-life ([1]; cynomolgus, cynomolgus monkey, aqueous humour, topical or ocular, monkey, after administration of 1.5 mg/mL eye drop): 2 h
Concentrations in retina, choroid, vitreous and other tissues of the eye ([1]; monkey, 0.5, 1.0 or 1.5 mg/mL twice a day for 21 days): significant concentrations
melting point: 148 to 150 °C
Compound: Cn1ccc(CN2CCN(c3ccc(C(F)(F)F)cc3NC(=O)c3ccc(C4CCOCC4)o3)CC2)n1 [Compound 1, N-(2-(4-((1-methyl-1H-pyrazol-3-yl)methyl)piperazin-1-yl)-5-(trifluoromethyl)phenyl)-5-(tetrahydro-2H-pyran-4-yl)furan-2-carboxamide]
Concentrations in aqueous taps and plasma samples ([1]; monkey, all three doses (0.5, 1.0, 1.5 mg/mL)): Significant concentrations were seen at all three doses
Expression of pro-angiogenic VEGF-A165a isoform [2]: reduces expression of the pro-angiogenic VEGF-A165a isoform in a dose dependent manner
